Test results from patent US20140128339A1, “2'-METHYL SUBSTITUTED NUCLEOSIDE DERIVATIVES AND METHODS OF USE THEREOF FOR THE TREATMENT OF VIRAL DISEASES” (priority 2012, published 2014).

Key:
[1] = tested on: replicon cells (1b-Con1); test: microbe, parasite or virus in culture; format: cell-based, HCV; details: Hepatitis C virus, 72 h; 1b-Con1 replicon cells, three days post-dosing, Taqman RT-PCR with GAPDH RNA as control
[2] = tested on: replicon cells; details: CC50, MTS assay three days post dosing in replicon cells
[3] = biological target: T1, HCV NS5B RNA-dependent RNA polymerase (1b-BKΔ55) (Hepatitis C virus genotype 1b, UniProt P26663); test: Inhibition of HCV NS5B polymerase by nucleoside triphosphate analogs (radiolabeled nucleotide incorporation assay); format: biochemical
T1 construct: 5 nM NS5B (1b-BKΔ55) enzyme
T1 sequence (P26663 2420-2955, stated change not applied): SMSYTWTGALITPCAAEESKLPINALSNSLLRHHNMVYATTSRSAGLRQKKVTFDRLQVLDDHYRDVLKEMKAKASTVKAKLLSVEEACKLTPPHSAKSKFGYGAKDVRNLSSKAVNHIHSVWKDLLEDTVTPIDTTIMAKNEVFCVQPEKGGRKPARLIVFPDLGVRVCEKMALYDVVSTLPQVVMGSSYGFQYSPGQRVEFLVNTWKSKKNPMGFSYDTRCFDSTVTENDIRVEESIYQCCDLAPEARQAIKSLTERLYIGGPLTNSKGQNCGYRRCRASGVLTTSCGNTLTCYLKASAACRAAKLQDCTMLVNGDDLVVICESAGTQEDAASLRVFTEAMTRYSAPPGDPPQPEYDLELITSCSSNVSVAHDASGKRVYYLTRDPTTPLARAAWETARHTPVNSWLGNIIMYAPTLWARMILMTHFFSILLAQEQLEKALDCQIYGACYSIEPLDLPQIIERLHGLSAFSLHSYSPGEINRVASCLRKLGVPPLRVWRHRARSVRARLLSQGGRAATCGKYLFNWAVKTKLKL
Protocol: To measure inhibition of the enzymatic activity of the HCV NS5B RNA-dependent RNA polymerase by the nucleoside triphosphate compounds of the present invention, a radiolabeled nucleotide incorporation assay was used. This assay is a modified version of the assay described in International Publication No. WO2002/057287. Briefly, 50 μL reactions containing 20 mM HEPES (pH 7.3); 7.5 mM DTT; 20 units/ml RNasIN; 1 μM each of ATP, GTP, UTP and CTP; 20 μCi/mL [^33P]-CTP; 10 mM MgCl; 60 mM NaCl; 100 μg/ml BSA; […] heteropolymer RNA template; and 5 nM NS5B (1b-BKΔ55) enzyme are incubated at room temperature for 1 hour. The assay is then terminated by the addition of 500 mM EDTA (50 μl). The reaction mixture is transferred to a Millipore DE81 filter plate and the incorporation of labeled CTP is determined using Packard TopCount. Compound IC50 values can then be calculated from experiments with 10 serial 3-fold dilutions of the inhibitor in duplicate.
Data was obtained using this method for the NTP analogs of selected compounds below of the present invention, and is set forth below. […] Data is also presented for comparative compounds, labeled as Compound B and Compound C.

## CC(C)OC(=O)[C@H](C)N[P@@](=O)(OC[C@H]1OC(n2ccc(N)nc2=O)[C@](C)(C#N)[C@@H]1OC(=O)C(C)C)Oc1ccccc1 (some centres unmarked) [Compound 7]
[1]
  EC50: 0.425 µM
[2]
  Cytotoxicity: >100 µM

## CCCCCCCCCCCCCCCCCC(=O)O[C@@H]1[C@@H](CO[P@](=O)(N[C@@H](C)C(=O)OC(C)C)Oc2ccccc2)OC(n2ccc(N)nc2=O)[C@]1(C)C#N (some centres unmarked) [Compound 8]
[1]
  EC50: 5.09 µM
[2]
  Cytotoxicity: 6.54 µM

## CC(C)OC(=O)[C@H](C)N[P@@](=O)(OC[C@H]1OC(n2ccc(NC(=O)C(C)C)nc2=O)[C@](C)(C#N)[C@@H]1O)Oc1ccccc1 (some centres unmarked) [Compound 10]
[1]
  EC50: 9.5 µM
[2]
  Cytotoxicity: 10 µM

## CCCCCCCCCCCCCCCCCC(=O)Nc1ccn(C2O[C@H](CO[P@](=O)(N[C@@H](C)C(=O)OC(C)C)Oc3ccccc3)[C@@H](O)[C@@]2(C)C#N)c(=O)n1 (some centres unmarked) [Compound 11]
[1]
  EC50: 1.8 µM
[2]
  Cytotoxicity: 25 µM

## CC(C)OC(=O)[C@H](C)NP(=O)(OC[C@H]1O[C@@H](n2ccc(NC(=O)C(C)C)nc2=O)[C@](C)(C#N)[C@@H]1OC(=O)C(C)C)Oc1ccccc1 (some centres unmarked) [Compound 12]
[1]
  EC50: 10 µM
[2]
  Cytotoxicity: 76 µM

## CCCCCCCCCCCCCCCCCC(=O)Nc1ccn(C2O[C@H](CO[P@](=O)(N[C@@H](C)C(=O)OC(C)C)Oc3ccccc3)[C@@H](OC(=O)CCCCCCCCCCCCCCCCC)[C@@]2(C)C#N)c(=O)n1 (some centres unmarked) [Compound 13]
[1]
  EC50: > 100 µM
[2]
  Cytotoxicity: >100 µM

## CC(C)OC(=O)[C@H](C)NP(=O)(OC[C@H]1O[C@@H](n2ccc(N)nc2=O)[C@](C)(N=[N+]=[N-])[C@@H]1OC(=O)C(C)C)Oc1ccccc1 (some centres unmarked) [Compound 15]
[1]
  EC50: 0.6 µM
[2]
  Cytotoxicity: >100 µM

## CCCC(CCC)C(=O)O[C@@H]1[C@@H](COP(=O)(N[C@@H](C)C(=O)OC(C)C)Oc2ccccc2)O[C@@H](n2ccc(N)nc2=O)[C@]1(C)N=[N+]=[N-] (some centres unmarked) [Compound 16]
[1]
  EC50: 0.1 µM
[2]
  Cytotoxicity: 13 µM

## CCCCCCCCCCCCCCCCCC(=O)O[C@@H]1[C@@H](COP(=O)(N[C@@H](C)C(=O)OC(C)C)Oc2ccccc2)O[C@@H](n2ccc(N)nc2=O)[C@]1(C)N=[N+]=[N-] (some centres unmarked) [Compound 17]
[1]
  EC50: 8.2 µM
[2]
  Cytotoxicity: 9.9 µM

## CC(C)OC(=O)[C@H](C)NP(=O)(OC[C@H]1O[C@@H](n2ccc(NC(=O)C(C)C)nc2=O)[C@](C)(N=[N+]=[N-])[C@@H]1OC(=O)C(C)C)Oc1ccccc1 (some centres unmarked) [Compound 18]
[1]
  EC50: 15 µM
[2]
  Cytotoxicity: >100 µM

## CC(C)OC(=O)[C@H](C)NP(=O)(OC[C@H]1O[C@@H](n2ccc(NC(=O)C(C)C)nc2=O)[C@](C)(N=[N+]=[N-])[C@@H]1O)Oc1ccccc1 (some centres unmarked) [Compound 19]
[1]
  EC50: 8.5 µM
[2]
  Cytotoxicity: >100 µM

## CCCCCCCCCCCCCCCCCC(=O)Nc1ccn([C@@H]2O[C@H](COP(=O)(N[C@@H](C)C(=O)OC(C)C)Oc3ccccc3)[C@@H](O)[C@@]2(C)N=[N+]=[N-])c(=O)n1 (some centres unmarked) [Compound 20]
[1]
  EC50: 3.6 µM
[2]
  Cytotoxicity: >100 µM

## CC(C)OC(=O)[C@H](C)NP(=O)(OC[C@H]1O[C@@H](n2ccc(=O)[nH]c2=O)[C@](C)(C#N)[C@@H]1OC(=O)C(C)C)Oc1ccccc1 (some centres unmarked) [Compound 23]
[1]
  EC50: 0.7 µM
[2]
  Cytotoxicity: >100 µM

## CC(C)OC(=O)[C@H](C)NP(=O)(OC[C@H]1O[C@@H](n2ccc(=O)[nH]c2=O)[C@](C)(C#N)[C@@H]1OC(=O)C1CC1)Oc1ccccc1 (some centres unmarked) [Compound 24]
[1]
  EC50: 6.3 µM
[2]
  Cytotoxicity: >100 µM

## CC(C)OC(=O)[C@H](C)NP(=O)(OC[C@H]1O[C@@H](n2ccc(=O)[nH]c2=O)[C@](C)(C#N)[C@@H]1OC(=O)C1CCC1)Oc1ccccc1 (some centres unmarked) [Compound 25]
[1]
  EC50: 0.7 µM
[2]
  Cytotoxicity: >100 µM

## CC(C)OC(=O)O[C@@H]1[C@@H](COP(=O)(N[C@@H](C)C(=O)OC(C)C)Oc2ccccc2)O[C@@H](n2ccc(=O)[nH]c2=O)[C@]1(C)C#N (some centres unmarked) [Compound 26]
[1]
  EC50: 1 µM
[2]
  Cytotoxicity: >100 µM

## CC(C)NC(=O)O[C@@H]1[C@@H](COP(=O)(N[C@@H](C)C(=O)OC(C)C)Oc2ccccc2)O[C@@H](n2ccc(=O)[nH]c2=O)[C@]1(C)C#N (some centres unmarked) [Compound 27]
[1]
  EC50: > 100 µM
[2]
  Cytotoxicity: >100 µM

## CCCCC(=O)O[C@@H]1[C@@H](COP(=O)(N[C@@H](C)C(=O)OC(C)C)Oc2ccccc2)O[C@@H](n2ccc(=O)[nH]c2=O)[C@]1(C)C#N (some centres unmarked) [Compound 28]
[1]
  EC50: 0.7 µM
[2]
  Cytotoxicity: 76 µM

## CCCC(CCC)C(=O)O[C@@H]1[C@@H](COP(=O)(N[C@@H](C)C(=O)OC(C)C)Oc2ccccc2)O[C@@H](n2ccc(=O)[nH]c2=O)[C@]1(C)C#N (some centres unmarked) [Compound 29]
[1]
  EC50: 0.19 µM
[2]
  Cytotoxicity: 20 µM

## C[C@@]1(N)[C@H](O)[C@@H](COP(=O)(O)OP(=O)(O)OP(=O)(O)O)O[C@H]1n1ccc(N)nc1=O [Compound 34]
[3]
  Ki: 0.05 µM

## C[C@@]1(N)[C@H](O)[C@@H](COP(=O)(O)OP(=O)(O)OP(=O)(O)O)O[C@H]1n1ccc(=O)[nH]c1=O [Compound 35]
[3]
  Ki: 4.7 µM

## C#C[C@]1(C)[C@H](O)[C@@H](COP(=O)(O)OP(=O)(O)OP(=O)(O)O)O[C@H]1n1ccc(=O)[nH]c1=O [Compound 36]
[3]
  Ki: 11 µM
